Results reported in publication PMC7463999, “Antioxidant, Anti-inflammatory and Neuroprotective Profiles of Novel 1,4-Dihydropyridine Derivatives for the Treatment of Alzheimer’s Disease” (Antioxidants, 2020).
Several values for one entry are separate records, joined by “and”; a condition that tells them apart may be missing. Equal values may be shown once. Read-outs that look alike come from different tables or passages of the source.

How the values were obtained:
DPPH reduction assay = details: DPPH 100 µM, 1 h in the dark
Method: The final solution was incubated during 1 h in the dark. […] Results are expressed as a percentage of DPPH reduction by subtracting blank absorbance (Absblank) to sample absorbance (Abssample) and corrected by control absorbance, (Abscontrol, DPPH alone, as expressed below: % DPPH reduction = [100 − ((Abssample − Absblank) × 100/Abscontrol)](1)
Briefly, the compounds under assay (150 µL) at the desired concentration (1, 10, 60 and 100 µM) in methanol/water (80/20) were added to a solution of DPPH in methanol/water (80/20) (150 µL, 100 µM), in a clear bottom 96-well plate, and the final solution was incubated 1 h in the dark. Then, DPPH absorbance of blank (methanol/water), control
Optima plate-reader (BMG Labtech, Ortenberg, Germany) in duplicate.
Results are expressed as % of absorbance (Abs) reduction of control after subtracting blank absorbance, as expressed
% DPPH reduction = [100 – (Abssample-Absblank) x 100]/Abscontrol

GSK-3β = GSK-3β (Homo sapiens, UniProt P49841); assay: GSK-3β inhibition, Kinase-Glo luminescence assay
[1] = test system: SH-SY5Y human neuroblastoma cells; assay: Neuroprotection against rotenone/oligomycin A (oxidative stress), MTT; details: 1 μM, rotenone 30 μM / oligomycin A 10 μM, 24 h; for percentage of survival, R/O toxicity: basal = 100%
Method: (§1) Cells were pre-incubated with the corresponding compound at 1 μM in neuroblastoma culture medium. After 24 h, the medium was removed and replaced with 1% FBS neuroblastoma culture media containing the corresponding compound at 1 µM and the toxic stimuli, namely a mixture of rotenone and oligomycin A (R/O, 30 μM/10 μM, respectively), okadaic acid (OA) at 20 nM or a high concentration of KCl (70 mM). Cells were co-incubated for further 24 h with the R/O mixture or KCl solution, or 18 h with the OA solution. […] Control cells were incubated with the same amount of dimethyl sulfoxide (DMSO) without any drug. After the co-incubation period, cell viability was assessed by the 3-(4,5-dimethylthiazol-2-yl)-2,5-diphenyltetrazolium bromide (MTT) reduction method [56]; basal condition was considered as 100% survival.
(§2) Neuroprotection in the SH-SY5Y neuroblastoma cell line
(§3) A pre- and co-incubation protocol was followed. Cells were pre-incubated with the
(§4) corresponding compound at 1 M in neuroblastoma culture medium. After 24 h, the
(§5) medium was removed and replaced with 1% FBS neuroblastoma culture media
(§6) containing the corresponding compound at 1 µM and the toxic stimuli, namely a mixture
(§7) of rotenone and oligomycin A (30 M/10 M respectively), okadaic acid at 20 nM or a
(§8) high concentration of potassium chloride (70 mM). Cells were co-incubated for further
(§9) 24 h with the rotenone and oligomycin A or potassium chloride solution, or 18 h with the
(§10) okadaic acid solution. Control cells were incubated with the same amount of DMSO
(§11) and reference compounds in the rotenone-oligomycin A, okadaic acid or high
(§12) concentration of potassium models respectively. After the co-incubation period, cell
(§13) viability was assessed by the MTT-reduction method [11] considering basal conditions
Viability assay by MTT-reduction
(§14) SH-SY5Y, primary glial culture cells and rat hippocampal slices viability was
(§15) measured by the MTT assay [11]. This method is based on the cleavage of the tetrazolium
(§16) ring of MTT by active dehydrogenases, generating a formazan precipitate. At the end of
(§17) the neuroprotection or toxicity experiments, an MTT solution was added to each well to
(§18) reach a final concentration of 0.5 mg/mL. After 2 additional hours of incubation, the
(§19) solution was replaced by 100 or 300 µL of DMSO to solubilize the formazan precipitate.
(§20) in control cells was considered as 100 % of cell survival and used to reference all
(§21) treatments. The percentage of protection was calculated as follows: the percentage of cell
(§22) survival obtained with the toxic stimuli-treated cells subtracted to 100 was normalized to
(§23) 100 % of cell death. The percentage of protection was obtained by subtracting the
(§24) percentage of cell death in presence of the tested compound to 100 %.

[2] = Blood-brain barrier permeation assay (PAMPA), porcine brain lipid; assay type: in vitro ADME; details: for PAMPA Prediction: BBB permeability class from Pe; for Prediction of the BBB passive permeability: PAMPA control compounds
[3] = test system: blood-brain barrier (passive diffusion); assay: as above; assay type: in vitro ADME
[4] = test system: SH-SY5Y human neuroblastoma cells; assay: Neuroprotection against 70 mM K+ ([Ca2+]c overload), MTT; details: 1 μM, 24 h, basal = 100%
Method: as §1, §2, §3, §4, §5
containing the corresponding compound at 1 µM and the toxic stimuli, namely a mixture […]
viability was assessed by the MTT-reduction method [11] considering basal conditions […]
measured by the MTT assay [11]. […]
treatments. The percentage of protection was calculated as follows: the percentage of cell […]

[5] = test system: neuroblastoma cell line SH-SY5Y; assay: Cytotoxicity (neurotoxicity) in SH-SY5Y, MTT; details: 24 h
Method: LD50 in SH-SY5Y and primary glial culture cells
(§25) cell line SH-SY5Y and primary glial cultures. Viability was measured as
(§26) MTT reduction in presence of increasing concentrations of derivatives.
(§27) Values are expressed as LD50 calculated from dose-response curves of four
(§28) different concentrations. Data are expressed as mean  SEM of five
different experiments in triplicate.
(§29) SH-SY5Y or primary glial cells were cultured in 96-well plates for 24 h. Then, cells
(§30) were treated with the compounds at 10, 30 and 100 µM in the corresponding culture media
(§31) with 1 % FBS After 24 h, cell viability was assessed by the MTT-reduction assay. Control
(§32) cells were incubated with the same concentration of DMSO (0.1 % final concentration)
Viability assay by MTT-reduction
as §14, §15, §16, §17, §18, §19, §20

[6] = Oxygen Radical Absorbance Capacity (ORAC) assay; details: Trolox equivalents, ORAC of Trolox = 1.0; AAPH, fluorescein
[7] = test system: voltage-dependent Ca^2+ channels (VDCC); assay: Voltage dependent calcium channels blockade assay (Fluo-4, 70 mM K+); assay type: cell-based, human; details: compounds at 10 μM, SH-SY5Y, basal = 100% response
Method: Free cytosolic Ca^2+ was measured using the fluorescence Ca^2+ indicator Fluo-4/AM. SH-SY5Y cells were seeded in 96-well black bottom transparent plates at a density of 60,000 cells per well and cultured until they reach confluence. Cells were incubated with the Ca^2+ sensitive dye Fluo-4/AM at 5 µM in Krebs-HEPES buffer (KH) (145 mM NaCl, 4.9 mM KCl, 1.2 mM MgCl2, 2 mM CaCl2, 10 mM HEPES, 11 mM glucose, pH 7.4), and 0.05% pluronic acid, for 1 h at 37 °C in the dark. Then, cells were washed twice with KH solution to remove the excess of probe and compounds in solution were added. Test compounds at 10 µM were incubated 10 min before K^+ 70 mM was applied to trigger cytosolic Ca^2+ increase. Fluorescence was measured in a fluorescence microplate reader (FLUOstar Optima, BMG, Ortenberg, Baden-Wuerttemberg, Germany) at excitation and emission wavelengths 485 and 520 nm, respectively. To normalize Fluo-4 signals, Triton X-100 (5%) and subsequently MnCl2 1 M were applied to the cells to register maximal and minimal fluorescence, respectively. Data were calculated as a percentage of Fluorescence increment with respect to Fmax − Fmin. The percentage of response was calculated considering basal conditions as 100% response.
Voltage dependent Calcium Channel Blockade Assay
Free cytosolic Ca2+ was measured using the fluorescence Ca2+ indicator Fluo-4/AM.
SH-SY5Y cells were seeded in 96-well black bottom transparent plates at a density of 60,000 cells per well until reaching confluence. Cells were incubated with the Ca2+ sensitive dye fluo-4 AM at 5 µM in Krebs-Hepes buffer (KH) (145 mM NaCl, 4.9 mM KCl, 1.2 mM MgCl2, 2 mM CaCl2, 10 mM HEPES, 11 mM glucose, pH 7.4), and 0.05 % pluronic acid, for 1 h at 37 °C in the dark. Then, cells were washed twice with KH solution to remove the excess of probe and compounds in solution were added. Tested compounds at 10 µM were incubated 10 min before K+ 70 mM was applied to evoke the increment of cytosolic Ca2+. The experiments were analyzed at excitation and emission wavelengths of 485 and 520 nm, respectively, and fluorescence was measured in a fluorescence microplate reader (FLUOstar Optima, BMG, Germany). To normalize Fluo-4 signals, Triton X-100 (5 %) and subsequently MnCl2 1 M were applied to cells for registering both maximal and minimal fluorescence, respectively. Data were calculated as % F increment respect to Fmax – Fmin. % of blockade was calculated considering basal conditions as 100 % response.
Then, the donor filter plate was carefully put on the acceptor plate to form a “sandwich”, which was left undisturbed for 4 h at 25 °C. During this time, the compounds diffused from the donor plate through the polar brain lipid membrane (area = 0.28 cm2) into the acceptor plate. After incubation, the donor plate was carefully removed. UV plate reader determined the concentration of compounds and commercial drugs in both acceptor and […]

primary glial cultures = assay: Cytotoxicity (gliotoxicity) in primary glial cultures, MTT; details: 24 h
Method: as §25, §26, §27, §28
different experiments in triplicate.
Mixed glial cultures were obtained from cerebral cortex of 2-5-day-old Sprague-Dawley rats. After removal of blood vessels and meninges, the forebrains were dissociated in DMEM/F12 medium. After mechanical dissociation, cells were plated (3x10^5 cells/ml) in DMEM/F12 medium with 20 % fetal bovine serum (FBS) and 1 % penicillin/streptomycin (10,000 units), at 37 °C and in a 5 % CO2-supplemented air atmosphere. After 5 days, medium was substituted by DMEM/F12 medium with 10 %
FBS. Cells were cultured for 7-10 days before treatment.
as §29, §30, §31, §32
Viability assay by MTT-reduction
as §14
measured by the MTT assay [11].

[8] = test system: primary glial cultures stimulated with LPS; assay: Nitrite production reduction (Griess) in LPS-stimulated mixed primary glial cultures; assay type: cell-based, rat; details: Rattus norvegicus; LPS 1 μg/mL, 24 h pre-incubation, 18 h co-incubation
[9] = test system: SH-SY5Y human neuroblastoma cells; assay: Neuroprotection against okadaic acid (tau hyperphosphorylation), MTT; details: 18 h; for percentage of protection, okadaic acid toxicity: 1 μM, OA 20 nM; for viability at 1 µM: Homo sapiens, SH-SY5Y, read-out: cell viability (percentage survival), okadaic acid toxicity
Method: as §1, §2, §3, §4, §5, §6, §7, §8, §9, §10, §11, §12, §13
Viability assay by MTT-reduction
as §14, §15, §16, §17, §18, §19, §20, §21, §22, §23, §24

rat hippocampal slices = details: OA 1 μM alone, 6 h
Method: Finally, cell viability and ROS production were measured.
After the co-incubation period, cell
as §13
Viability assay by MTT-reduction
as §14, §15, §16, §17, §18, §19, §20, §21, §22, §23, §24
Acute treatment in rat hippocampal slices
3-4 months-old Sprague-Dawley rats were beheaded and both hippocampi dissected
0.5 mM CaCl2; 11 mM glucose and 200 mM sucrose at pH 7.4). […]
All values are expressed as mean ± S.E.M. IC50 and LD50 values were calculated by […]

[10] = PAMPA, 100 µM, PBS pH 7.4, 4 h at 25 °C, mean ± SEM, read-out: PAMPA Pe
[11] = pH 7.4, PAMPA control compounds, Pe ± SD, read-out: Pe ± SD

GSK-3β, sequence (P49841 whole entry): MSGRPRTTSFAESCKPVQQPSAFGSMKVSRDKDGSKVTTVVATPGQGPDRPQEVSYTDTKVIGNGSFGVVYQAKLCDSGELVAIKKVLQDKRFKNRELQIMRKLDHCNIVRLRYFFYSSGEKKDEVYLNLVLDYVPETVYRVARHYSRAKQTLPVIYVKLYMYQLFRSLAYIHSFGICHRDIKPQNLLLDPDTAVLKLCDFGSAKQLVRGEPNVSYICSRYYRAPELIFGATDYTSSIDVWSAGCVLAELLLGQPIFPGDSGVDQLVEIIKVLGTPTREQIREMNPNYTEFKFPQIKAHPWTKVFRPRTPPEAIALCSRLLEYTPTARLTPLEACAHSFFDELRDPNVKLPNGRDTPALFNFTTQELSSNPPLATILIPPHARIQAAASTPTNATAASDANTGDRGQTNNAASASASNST

| SMILES | IC50 (DPPH reduction assay) | IC50 (GSK-3β) | Ki (GSK-3β) | percentage of protection, R/O toxicity [1] | percentage of survival, R/O toxicity [1] | PAMPA Prediction [2] | Papp at 4 h, 100 µM [3, 10] | survival percentage, high K+ toxicity [4] | SH-SY5Y LD50 [5] | ORAC (T. Eq.) [6] | VDCC % Response [7] | Glial cultures LD50 (primary glial cultures) | EC50 [8] | Prediction of the BBB passive permeability [2] | Papp at 4 h, 100 µM [3, 11] | percentage of protection, okadaic acid toxicity [9] | viability at 1 µM [9] | fold more potent GSK-3β inhibitor than 4l (GSK-3β; ratio of IC50 values) | reduction of cell viability of hippocampal slices (rat hippocampal slices) |
| --- | --- | --- | --- | --- | --- | --- | --- | --- | --- | --- | --- | --- | --- | --- | --- | --- | --- | --- | --- |
| Cc1[nH]nc2c1C(c1cccc(Cl)c1)C(C#N)=C(N)N2 (centres unmarked) [4d] | 22.8 ± 4.63 µM | 1.05 ± 0.3 µM | 0.74 µM | 32.0% | 72.3% | CNS+ | 11.8 ± 3 ×10⁻⁶ cm/s | 61.4% | > 100 µM | 0.63 T. Eq. and 0.63 ± 0.09 T. Eq. | 76.0 ± 6.5% | > 100 µM | 0.78 ± 1.98 µM | – | – | – | – | – | – |
| CN1C(C(=O)Nc2ccccn2)=C(O)c2ccccc2S1(=O)=O [Piroxicam, reference compound] | – | – | – | – | – | – | – | – | – | – | – | – | – | CNS (+/-) | 3.3 ± 0.1 ×10⁻⁶ cm/s | – | – | – | – |
| Cc1[nH]nc2c1C(c1ccccc1)C(C#N)=C(N)N2 (centres unmarked) [4a] | 25.2 ± 7.91 µM | – | – | – | – | CNS+ | 8 ± 1.5 ×10⁻⁶ cm/s | – | > 100 µM | 0.69 ± 0.04 T. Eq. | 72.1 ± 5.8% | > 100 µM | 5.2 ± 1.89 µM | – | – | – | – | – | – |
| Cc1[nH]nc2c1C(c1ccc([N+](=O)[O-])cc1)C(C#N)=C(N)N2 (centres unmarked) [4i] | 23.2 ± 4.31 µM | 3.09 ± 0.4 µM | 2.17 µM | – | – | CNS± | 3.1 ± 1 ×10⁻⁶ cm/s | – | > 100 µM | 0.96 ± 0.05 T. Eq. | 73.2 ± 2.9% | > 100 µM | 6.1 ± 1.84 µM | – | – | – | – | – | – |
| Cc1[nH]nc2c1C(c1ccccc1Cl)C(C#N)=C(N)N2 (centres unmarked) [4c] | 23.3 ± 2.6 µM | 1.51 ± 1.1 µM | 1.06 µM | – | 81.3% | CNS+ | 9.4 ± 3.5 ×10⁻⁶ cm/s | – | > 100 µM | 0.94 T. Eq. and 0.94 ± 0.04 T. Eq. | 58.7 ± 6.8% | > 100 µM | 14.4 ± 2.19 µM | – | – | over 50% | 74% | – | – |
| Cc1[nH]nc2c1C(c1ccncc1)C(C#N)=C(N)N2 (centres unmarked) [4l] | 22.9 ± 4.23 µM | 10.2 ± 3.2 µM | 7.14 µM | 71.6% | – | CNS+ | 5 ± 2.9 ×10⁻⁶ cm/s | 78.9% | > 100 µM | 1.1 T. Eq. and 1.10 ± 0.13 T. Eq. | 68.9 ± 4.5% | > 100 µM | 15.6 ± 3.35 µM | – | – | over 50% | – | – | – |
| CC(=O)[C@H]1CC[C@H]2[C@@H]3CCC4=CC(=O)CC[C@]4(C)[C@H]3CC[C@]12C [Progesterone, reference compound] | – | – | – | – | – | – | – | – | – | – | – | – | – | CNS (+/-) | 2.2 ± 2.8 ×10⁻⁶ cm/s | – | – | – | – |
| Cc1[nH]nc2c1C(c1cccs1)C(C#N)=C(N)N2 (centres unmarked) [4j] | 20.9 ± 4.23 µM | 1.74 ± 1 µM | 1.22 µM | – | – | CNS+ | 8.8 ± 4.4 ×10⁻⁶ cm/s | – | > 100 µM | 2.93 T. Eq. and 2.93 ± 0.15 T. Eq. | 60.6 ± 6.8% | > 100 µM | 5.4 ± 0.27 µM | – | – | – | 64% | 5 fold | – |
| C=C1[C@@H](O)[C@@H]2O[C@]3(CC[C@H](/C=C/[C@@H](C)[C@@H]4CC(C)=C[C@@]5(O[C@H](C[C@@](C)(O)C(=O)O)CC[C@H]5O)O4)O3)CC[C@H]2O[C@@H]1[C@@H](O)C[C@H](C)[C@H]1O[C@@]2(CCCCO2)CC[C@H]1C [OA, okadaic acid] | – | – | – | – | – | – | – | – | – | – | – | – | – | – | – | – | – | – | 30% |
